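Test compounds were applied to cells in 96-well plates for 48 hours at 5 doses. At the GI50, growth is halved. TGI: total growth inhibition.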
Assays:
Assay in all cases: NCI anticancer screen, dose series, 48 h
U251 CNS = system: U251 CNS
NCI-H460 lung = system: NCI-H460 lung
MOLT-4 leukemia = system: MOLT-4 leukemia
HS 578T breast = system: HS 578T breast
SR leukemia = system: SR leukemia
A549 NSCLC = system: A549 NSCLC
MALME-3M melanoma = system: MALME-3M melanoma
DU-145 prostate = system: DU-145 prostate
SN12C renal = system: SN12C renal
MCF7 breast = system: MCF7 breast
PC-3 prostate = system: PC-3 prostate
OVCAR-3 ovarian = system: OVCAR-3 ovarian
HCT-116 colon = system: HCT-116 colon
CCRF-CEM leukemia = system: CCRF-CEM leukemia
HOP-92 NSCLC = system: HOP-92 NSCLC
SK-MEL-5 melanoma = system: SK-MEL-5 melanoma
LOX IMVI melanoma = system: LOX IMVI melanoma
SNB-19 CNS = system: SNB-19 CNS
HCC-2998 colon = system: HCC-2998 colon
TK-10 renal = system: TK-10 renal
NCI/ADR-RES ovarian = system: NCI/ADR-RES ovarian
COLO 205 colon = system: COLO 205 colon
HCT-15 colon = system: HCT-15 colon
ACHN renal = system: ACHN renal
HT29 colon = system: HT29 colon
786-0 renal = system: 786-0 renal
NCI-H226 lung = system: NCI-H226 lung
BT-549 breast = system: BT-549 breast
MDA-MB-435 = system: MDA-MB-435
RPMI-8226 leukemia = system: RPMI-8226 leukemia
OVCAR-8 ovarian = system: OVCAR-8 ovarian
MDA-MB-231 breast = system: MDA-MB-231 breast
NCI-H23 lung = system: NCI-H23 lung
NCI-H522 lung = system: NCI-H522 lung
IGROV1 ovarian = system: IGROV1 ovarian
OVCAR-5 ovarian = system: OVCAR-5 ovarian
SK-MEL-2 melanoma = system: SK-MEL-2 melanoma
UACC-257 melanoma = system: UACC-257 melanoma
SF-268 CNS = system: SF-268 CNS
T-47D breast = system: T-47D breast
SF-539 CNS = system: SF-539 CNS
UO-31 renal = system: UO-31 renal
A498 renal = system: A498 renal
SW-620 colon = system: SW-620 colon
UACC-62 melanoma = system: UACC-62 melanoma
KM12 colon = system: KM12 colon
RXF 393 renal = system: RXF 393 renal
CAKI-1 renal = system: CAKI-1 renal
HL-60(TB) leukemia = system: HL-60(TB) leukemia
OVCAR-4 ovarian = system: OVCAR-4 ovarian
SK-MEL-28 melanoma = system: SK-MEL-28 melanoma
K-562 leukemia = system: K-562 leukemia
HOP-62 NSCLC = system: HOP-62 NSCLC
M14 melanoma = system: M14 melanoma
SK-OV-3 ovarian = system: SK-OV-3 ovarian

With `COc1cc2ccnc(C=O)c2cc1OC` the GI50 (U251 CNS) was 28.7 µM, the TGI (U251 CNS) was > 100 µM and the GI50 (NCI-H460 lung) was > 100 µM. For the same compound, the TGI (NCI-H460 lung) was > 100 µM, the GI50 (MOLT-4 leukemia) was 4.52 µM and the TGI (MOLT-4 leukemia) was 41.4 µM. For the same compound, the GI50 (HS 578T breast) was 23.8 µM, the TGI (HS 578T breast) was > 100 µM and the GI50 (SR leukemia) was 0.696 µM. For the same compound, the TGI (SR leukemia) was > 100 µM, the GI50 (A549 NSCLC) was > 100 µM and the TGI (A549 NSCLC) was > 100 µM. For the same compound, the GI50 (MALME-3M melanoma) was 14.7 µM, the TGI (MALME-3M melanoma) was > 100 µM and the GI50 (DU-145 prostate) was 4.83 µM. For the same compound, the TGI (DU-145 prostate) was > 100 µM, the GI50 (SN12C renal) was 12.1 µM and the TGI (SN12C renal) was > 100 µM. The GI50 (MCF7 breast) was 3.64 µM, the TGI (MCF7 breast) was > 100 µM and the GI50 (PC-3 prostate) was 23.9 µM. The TGI (PC-3 prostate) was > 100 µM, the GI50 (OVCAR-3 ovarian) was 6.36 µM and the TGI (OVCAR-3 ovarian) was 90.6 µM. It also gave a GI50 (HCT-116 colon) of 1.92 µM, a TGI (HCT-116 colon) of 14.8 µM and a GI50 (CCRF-CEM leukemia) of 3.08 µM. The TGI (CCRF-CEM leukemia) was 22.1 µM, the GI50 (HOP-92 NSCLC) was 1.18 µM and the TGI (HOP-92 NSCLC) was 5.93 µM. It also gave a GI50 (SK-MEL-5 melanoma) of 10.7 µM, a TGI (SK-MEL-5 melanoma) of 23.6 µM and a GI50 (LOX IMVI melanoma) of 10.1 µM. For the same compound, the TGI (LOX IMVI melanoma) was > 100 µM, the GI50 (SNB-19 CNS) was > 100 µM and the TGI (SNB-19 CNS) was > 100 µM. For the same compound, the GI50 (HCC-2998 colon) was 23.8 µM, the TGI (HCC-2998 colon) was > 100 µM and the GI50 (TK-10 renal) was 6.02 µM. For the same compound, the TGI (TK-10 renal) was 44.1 µM, the GI50 (NCI/ADR-RES ovarian) was 16 µM and the TGI (NCI/ADR-RES ovarian) was > 100 µM. For the same compound, the GI50 (COLO 205 colon) was > 100 µM, the TGI (COLO 205 colon) was > 100 µM and the GI50 (HCT-15 colon) was 3.43 µM. The TGI (HCT-15 colon) was > 100 µM, the GI50 (ACHN renal) was 4.71 µM and the TGI (ACHN renal) was 54.8 µM. For the same compound, the GI50 (HT29 colon) was 3.3 µM, the TGI (HT29 colon) was > 100 µM and the GI50 (786-0 renal) was 18.3 µM. For the same compound, the TGI (786-0 renal) was > 100 µM, the GI50 (NCI-H226 lung) was 29.9 µM and the TGI (NCI-H226 lung) was > 100 µM. It also gave a GI50 (BT-549 breast) of 2.68 µM, a TGI (BT-549 breast) of 7.14 µM and a GI50 (MDA-MB-435) of 2.63 µM. For the same compound, the TGI (MDA-MB-435) was 24.9 µM, the GI50 (RPMI-8226 leukemia) was 3.44 µM and the TGI (RPMI-8226 leukemia) was 34.8 µM. For the same compound, the GI50 (OVCAR-8 ovarian) was 5.45 µM, the TGI (OVCAR-8 ovarian) was 63.4 µM and the GI50 (MDA-MB-231 breast) was 6.51 µM. The TGI (MDA-MB-231 breast) was 75.1 µM, the GI50 (NCI-H23 lung) was 24.9 µM and the TGI (NCI-H23 lung) was > 100 µM. For the same compound, the GI50 (NCI-H522 lung) was 12.5 µM, the TGI (NCI-H522 lung) was 31.3 µM and the GI50 (IGROV1 ovarian) was 22.8 µM. The TGI (IGROV1 ovarian) was > 100 µM, the GI50 (OVCAR-5 ovarian) was 17 µM and the TGI (OVCAR-5 ovarian) was > 100 µM. The GI50 (SK-MEL-2 melanoma) was 37.1 µM, the TGI (SK-MEL-2 melanoma) was > 100 µM and the GI50 (UACC-257 melanoma) was 18.9 µM. For the same compound, the TGI (UACC-257 melanoma) was > 100 µM, the GI50 (SF-268 CNS) was 23.5 µM and the TGI (SF-268 CNS) was > 100 µM. For the same compound, the GI50 (T-47D breast) was 14 µM, the TGI (T-47D breast) was > 100 µM and the GI50 (SF-539 CNS) was 5.65 µM. It also gave a TGI (SF-539 CNS) of 29.7 µM, a GI50 (UO-31 renal) of 3.98 µM and a TGI (UO-31 renal) of 42.2 µM. The GI50 (A498 renal) was > 100 µM, the TGI (A498 renal) was > 100 µM and the GI50 (SW-620 colon) was 4.15 µM. The TGI (SW-620 colon) was > 100 µM, the GI50 (UACC-62 melanoma) was 6.87 µM and the TGI (UACC-62 melanoma) was 38.1 µM. For the same compound, the GI50 (KM12 colon) was 31.9 µM, the TGI (KM12 colon) was > 100 µM and the GI50 (RXF 393 renal) was 1.45 µM. It also gave a TGI (RXF 393 renal) of 4.98 µM, a GI50 (CAKI-1 renal) of 23 µM and a TGI (CAKI-1 renal) of 85.2 µM. The GI50 (HL-60(TB) leukemia) was 2.2 µM, the TGI (HL-60(TB) leukemia) was 5.89 µM and the GI50 (OVCAR-4 ovarian) was 5.11 µM. The TGI (OVCAR-4 ovarian) was 24.2 µM, the GI50 (SK-MEL-28 melanoma) was 12.4 µM and the TGI (SK-MEL-28 melanoma) was > 100 µM. The GI50 (K-562 leukemia) was 4.84 µM, the TGI (K-562 leukemia) was > 100 µM and the GI50 (HOP-62 NSCLC) was 18.2 µM. The TGI (HOP-62 NSCLC) was 98.1 µM, the GI50 (M14 melanoma) was 4.98 µM and the TGI (M14 melanoma) was 28.5 µM. The GI50 (SK-OV-3 ovarian) was > 100 µM and the TGI (SK-OV-3 ovarian) was > 100 µM.
